According to patent US20260345717A1, “COMPOSITION FOR PREVENTING, AMELIORATING, OR TREATING ALZHEIMER'S DISEASE COMPRISING GRAPEVINE STEM EXTRACT OR COMPOUND ISOLATED THEREFROM AS EFFECTIVE COMPONENT” (KOREA INSTITUTE OF ORIENTAL MEDICINE, priority 2022, published 2026):

Tests used:
[1] = test system: herpes simplex virus (HSV-1) in Vero cells; test: Antiviral effect: HSV-1 (GFP) infection of Vero cells, flow cytometry; format: cell-based; conditions: for inhibition at 10 µM / inhibition at 5 µM: Human alphaherpesvirus 1, Vero, 18 h, read-out: inhibition rate of virus replication; for antiviral effect compared with other components of the extract: FIG. 2
Description: Vero cells were cultured in DMEM medium supplemented with 10% fetal bovine serum (FBS) and 1% penicillin/streptomycin. After culturing, the cells were infected with herpes simplex virus (HSV-1, 0.1 MOI) for 2 hours in DMEM medium supplemented with 1% penicillin/streptomycin. The infection solution was removed, the cells were washed with PBS and then treated with the samples from Preparation example 1 at different concentrations in DMEM supplemented with 10% FBS and 1% penicillin/streptomycin. The cells were subsequently cultured for 18 hours. Afterwards, the cells were recovered, fixed with 4% paraformaldehyde, washed with PBS, and GFP of the virus was quantified using flow cytometry. The cell infection rate was expressed as the infection rate compared to the group (Virus) that had not been treated with any sample.
In addition, the antiviral effect of the components contained in the grapevine stem extract obtained in Preparation example 2, i.e., vitisin A, &-viniferin, caraphenol A, betuin, cis-vitisin A, ampelopsin A, lupeol, vitisin B, malibatol A, viniferether B, lupenone, and resveratrol, was also determined by conducting experiments in the same manner as above.

[2] = test system: U373-MG cells infected with herpes simplex virus (HSV-1); test: Cell survival of HSV-1 infected U373-MG cells, MTT assay; format: cell-based, human; conditions: compared to untreated group (control), FIG. 5A; for viability at 10 µM: Homo sapiens, 18 h, read-out: cell survival rate
Description: (§1) U373-MG cells, a human-derived glioblastoma, were cultured in RPMI1640 medium supplemented with 10% FBS (Fetal bovine serum) and 1% penicillin/streptomycin. After culturing, the cells were infected with herpes simplex virus (HSV-1, 0.1 MOI) in RPMI1640 medium supplemented with 1% penicillin/streptomycin. After 2 hours, the infection solution was removed. After washing with PBS, the cells were treated for 18 hours with a sample in RPMI1640 supplemented with 10% FBS and 1% penicillin/streptomycin. […] Cell survival rate was expressed as cell survival rate compared to the untreated group (control).

[3] = test system: gB protein of the herpes simplex virus; test: gB viral protein expression in HSV-1 infected U373-MG cells, Western blot; format: cell-based, herpes simplex virus (HSV-1); conditions: 10 μM, FIG. 5B, 1080 min
tau protein (p-tau) = test: Phosphorylation of tau protein (p-tau) in HSV-1 infected U373-MG cells, Western blot; format: cell-based, human; conditions: 10 μM, FIGS. 10A and 10B
Description: as §1
(§2) The experiment was conducted in the same manner as the cell experiment in Example 3, but vitisin A, cis-vitisin A, and vitisin B isolated from grapevine stem extract were treated as test samples, and cell proteins were isolated to determine the expression of proteins that are related to dementia.

amyloid beta (Aβ1-42) = test: Amyloid beta (Aβ1-42) expression in HSV-1 infected U373-MG cells, Western blot; format: cell-based, human; conditions: 10 μM, FIGS. 10A and 10B
Description: as §1, §2

[4] = test system: herpes simplex virus protein VP16; test: VP16 viral protein expression in HSV-1 infected U373-MG cells; format: cell-based, herpes simplex virus (HSV-1); conditions: concentration not restated
[5] = test system: herpes simplex virus protein ICP27; test: ICP27 viral protein expression in HSV-1 infected U373-MG cells; format: cell-based, herpes simplex virus (HSV-1); conditions: concentration not restated

## Oc1ccc(/C=C/c2cc(O)cc3c2C(c2cc(O)cc(O)c2)C(c2ccc(O)cc2)O3)cc1 (stereo not drawn) [ε-viniferin]
[1]
  inhibition at 10 µM: 42%

## Oc1ccc(-c2oc3cc(O)cc4c3c2-c2cc(O)cc3c2[C@H](c2cc(O)cc5c2[C@@H]4[C@H](c2ccc(O)cc2)O5)[C@@H](c2ccc(O)cc2)O3)cc1 [caraphenol A]
[1]
  inhibition at 10 µM: 41%

## Oc1ccc([C@H]2c3c(O)cc(O)cc3[C@H]3c4c(cc(O)cc4[C@@H]2O)O[C@@H]3c2ccc(O)cc2)cc1 [amphelopsin A, ampelopsin A]
[1]
  inhibition at 10 µM: 54%

## Oc1ccc(C=Cc2cc(O)cc(O)c2)cc1 (single isomer, unassigned) [Resveratrol, resveratrol]
[1]; Vero cells, HSV-1 0.1 MOI, 18 hours, concentration not restated in this sentence
  inhibition of viral infection: 67%

## Oc1ccc([C@H]2Oc3cc(O)cc(/C=C/c4ccc5c(c4)[C@@H](c4cc(O)cc6c4[C@H](c4cc(O)cc(O)c4)[C@@H](c4ccc(O)cc4)O6)[C@H](c4ccc(O)cc4)O5)c3[C@@H]2c2cc(O)cc(O)c2)cc1 [vitisin B]
[2]
  viability at 10 µM: 76%
[3]
  reduction of gB protein compared to the virus-infected group: 66%
[1]
  inhibition at 5 µM: 80%
  inhibition at 10 µM: 76%
[1]; Vero cells
  antiviral effect compared with other components of the extract: best antiviral effect

## C=C(C)[C@@H]1CC[C@]2(C)CC[C@]3(C)[C@H](CC[C@@H]4[C@@]5(C)CC[C@H](O)C(C)(C)[C@@H]5CC[C@]43C)[C@@H]12 (single isomer, unassigned) [lupeol]
[1]
  inhibition at 10 µM: 59%

## Oc1ccc([C@H]2c3c(O)cc(O)cc3[C@H]3c4c(cc(O)cc4[C@@H]2c2cc(/C=C/c4cc(O)cc5c4[C@H](c4cc(O)cc(O)c4)[C@@H](c4ccc(O)cc4)O5)ccc2O)O[C@@H]3c2ccc(O)cc2)cc1 [vitisin A]
[2]
  viability at 10 µM: 87%
[3]
  reduction of gB protein compared to the virus-infected group: 99%
Tau protein (p-tau)
  phosphorylation of tau protein (p-tau) compared to the virus-infected group: significantly reduced
Amyloid beta (Aβ1-42)
  expression of amyloid beta (Aβ1-42) compared to the virus-infected group: significantly reduced
[1]
  inhibition at 5 µM: 80%
  inhibition at 10 µM: 96%
[1]; Vero cells
  antiviral effect compared with other components of the extract: best antiviral effect
[4]
  inhibition rate against VP16 compared to the virus-infected group: 100%
[5]
  inhibition rate against ICP27 compared to the virus-infected group: 93%

## cis-vitisin A
[2]; 10 μM, 1080 min
  cell survival rate: 84%
[3]
  reduction of gB protein compared to the virus-infected group: 27%
